Source: patent publication US20220168394A1, “METHODS OF INDUCING OR RESTORING IMMUNE TOLERANCE” (INSERM (Institut National de la Santé et de la Recherche …, priority 2019, published 2022)
Like-named read-outs stand apart in the source and are kept apart here.

Key:
Scurfy mice [1] = test system: Scurfy mice
Protocol: (§1) Scurfy phenotype was obtained by backcrossing on B6. 129S7-Rag1tm1Mom/J background, allowing generation of homozygous XSf/XSfRag1−/− female. Crossing of these females with WT C57BL/6J mice result in the birth only of diseased XSf/Y.Rag1−/+male.
(§2) First, scurfy mice were treated with an immunosuppressor: Temsirolimus (LC laboratories, Woburn, USA) was injected S.C at the dose of 2 mg/kg at day 8 and day 10 after birth. This treatment was continued twice a week in some experiment. Anti-CD3 Fab'2 (clone 145-2C11, BioXCell, West Lebanon, USA) was injected S.C at 20 μg/day during 5 days at day 8 after birth. Cyclophosphamide (European Pharmacopoeia (EP) Reference Standard, Merck KGaA, Darmstadt, Germany) was injected I.P. at 50, 100, or 150 mg/kg 10 days after birth. At day 10 or day 14, CD4^+CD25^+CD45.1^+cells (containing putative Tregs) or engineered CD4^+T cells (Foxp3.LNGFR or LNGFR) from Scurfy mice were injected at 0.5×10^6, 0.75×10^6 or 1×10^6 of cells respectively via I.P injections. […] In indicated experiments, together with cells, Proleukin (human IL-2, aldesleukine, Novartis) was injected at 1.000 UI/g via I.P and during 5 days then once a week.
(§3) As shown in FIGS. 1-7, the inventors compared 7 different experimental protocols to identify the one allowing to test the efficacy of Treg to treat Scurfy autoimmune syndrome. Tregs were sorted on the basis of CD4 and CD25 expression from CD45.1 congenic B6 mice and injected at a dose of 5×10^5 intra-peritoneally at day 10 or 14. The criteria was the scurfy score measured every 3 to 4 days from birth and when signs of efficiency evidenced improved scores for mice transplanted with Tregs, survival was followed. Three drugs were tested as conditioning regimens: Temsirolimus, subcutaneously injected at a dose of 2 mg/kg daily from day 4 to day 28 or from day 4 to day 9 (post-birth), anti-CD3 Fab'2, subcutaneously injected at a dose of 20 micrograms/recipient, daily from day 8 to day 12, Cyclophosphamide at 3 different doses (50, 100 and 150 mg/kg) injected at day 10.

CD4+ T cells = test: T cell depletion after immunosuppressive drug; set-up: species or system mice; details: mouse, in vivo
Protocol: as §2

Scurfy mice [2] = test system: Scurfy mice; remark: listed apart in the source
Protocol: as §2, §3

Scurfy mice [3] = test: Survival of Scurfy mice; type: in vivo
Protocol: as §1, §2
Values are represented as means ±SD, unless stated otherwise. GraphPad Prism 6.0 was used for all statistical analyses. P value was calculated with a confidence interval of 95% to indicate the statistical significance between groups. Statistical test included non-parametric Mann-Whitney test, Fischer exact test or two ways ANOVA depending on the dataset. A P value <0.05 was considered statistically significant. Statistically significant differences between groups are noted in figures with asterisks (*p<0.05, **p<0.01, ***p<0.001, ****p<0.0001). Correlations were performed with a non-parametric Spearman correlation. Survival was analyzed with Log-rank test (Mantel-Cox).
as §3

[4] = first series, Cy 50 mg/kg conditioned Scurfy mice

Row | Compound | scurfy score (Scurfy mice [1]; mouse, in vivo) | CD4 T cells nadir (time after injection) (CD4+ T cells) [days] | T cells depletion across doses (CD4+ T cells) | cell count normalized (time after injection) (CD4+ T cells) [days] | general toxicity (Scurfy mice [2]; 50 mg/kg at day 10) | general toxicity revealed by the health status of the mice (Scurfy mice [2]; 100 and 150 mg/kg at day 10) | toxicity observed (Scurfy mice [2]; Cy 50, 100 or 150 at day 10, correlated with dose) | toxicities in young animals (Scurfy mice [2]; even low dose of Cy) | delay of the death of scurfy mice (Scurfy mice [3]; cyclophosphamide at all doses (50, 100 and 150 mg/kg) at day 10, no cells) | mean survival (Scurfy mice [3]; [4]) [days] | survival following Cy injection (Scurfy mice [3]; increased from 30 (untreated mice) to 90 days, p=0.01) [days] | mean survival (Scurfy mice [3]; second series, 90 days of follow-up) [days] | scurfy score (Scurfy mice [1]; Temsirolimus twice a week starting at disease onset (day 8), drug alone) | improvement of Scurfy score after the infusion of Tregs (Scurfy mice [1]; drug used as conditioning regimen, 5×10^5 Tregs i.p. at day 10 or 14) | life expectancy (Scurfy mice [3]; Temsirolimus twice a week starting at day 8) | effect on auto-immunity in Scurfy settings (Scurfy mice [1]; low dose IL-2, 1.000 UI/g)
1 | O.O=P1(N(CCCl)CCCl)NCCCO1 (centres unmarked) [Cyclophosphamide, 2-[bis(2-chloroethyl)amino]-tetrahydro-2H-1,3,2-oxazaphosphorine-2-oxide monohydrate] | more stable scurfy score | 4 | not different with the three doses | 10 | absent | general toxicity | growth retardation and a transient alopecia | alopecia and growth retardation | more than 60 days | 39 | 90 | 47 | – | – | – | –
2 | CO[C@H]1C[C@@H]2CC[C@@H](C)[C@@](O)(O2)C(=O)C(=O)N2CCCC[C@H]2C(=O)O[C@H]([C@H](C)C[C@@H]2CC[C@@H](OC(=O)C(C)(CO)CO)[C@H](OC)C2)CC(=O)[C@H](C)/C=C(\C)[C@@H](O)[C@@H](OC)C(=O)[C@H](C)C[C@H](C)/C=C/C=C/C=C/1C [Temsirolimus] | – | – | – | – | – | – | – | – | – | – | – | – | reduction of Scurfy score | did not allow to reveal any improvement | doubling of life expectancy | –
3 | IL-2: Proleukin (human IL-2, aldesleukine, Novartis) | – | – | – | – | – | – | – | – | – | 51 | – | – | – | – | – | did not worsen auto-immunity
